For test [1], the system named is KB. Put plainly: Cytotoxicity against human KB cells. The test is classed as functional. The settings on record: read-out: ED50 (the source's name).
Test [2] deals with P388. Put plainly: Cytotoxicity against mouse P388 cells. The format is functional. Particulars: read-out: ED50 (the source's name).

Values after ≈ are worked out from the molar mass of the structure shown.

As to `COc1cc([C@H]2Oc3c(OC)cc4ccc(=O)oc4c3O[C@@H]2CO)ccc1O` [CLEOMISCOSIN A], the EC50 in test [1] came to 4.9 µg/mL (≈ 12.7 µM); in test [2], 3.8 µg/mL (≈ 9.84 µM).

The values are drawn from ChEMBL document CHEMBL1151298, “Plant anticancer agents XXIX. Cleomiscosin A from Simaba multiflora, Soulamea soulameoides, and Matayba arborescens” (1984).
